# Laboratory results as given in patent US20240368177A1, “5-AMINO-6,8-DIHYDRO-1H-FURO[3,4-d]PYRROLO[3,2-b]PYRIDINE-2-CARBOXAMIDE DERIVATIVES AS MTA-COOPERATIVE INHIBITORS OF PRMT5” (BeiGene Switzerland GmbH, priority 2023, published 2024).
# Assays:
# HCT116-mock-RNA-KO = experiment: Cell killing in HCT116 isogenic pair (Cell Titer-Glo viability), mock knock-out cells with MTAP wildtype genotype; assay type: cell-based, human; settings: Homo sapiens, HCT-116, 144 h, 6 days incubation, 0-10 μM
# In short: (§1)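 HCT116 MTAP-knockout or mock-knockout (MTAP wildtype) cells in RPMI 1640 with 10% FBS were seeded overnight, then exposed to test compound at 0–10 μM final for 6 days at 37° C. Viability was measured by CellTiter-Glo luminescence and IC50 was fitted.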
# HCT116-MTAP-KO = experiment: Cell killing in HCT116 isogenic pair (Cell Titer-Glo viability), MTAP knock-out cells; assay type: cell-based, human; settings: Homo sapiens, HCT-116, 144 h, 6 days incubation, 0-10 μM, * = more than 50% viability inhibition at tested concentration without a full curve
# In short: as §1
Structure (SMILES),IC50 (HCT116-mock-RNA-KO),IC50 (HCT116-MTAP-KO)
"C[C@H](c1ccc(C(F)(F)F)cc1F)N(C)C(=O)c1cc2nc(N)c3c(c2[nH]1)COC3 [Example 145, (R)-5-amino-N-(1-(2-fluoro-4-(trifluoromethyl)phenyl)ethyl)-N-methyl-6,8-dihydro-1H-furo[3,4-d]pyrrolo[3,2-b]pyridine-2-carboxamide]",3430 nM,26 nM
"C[C@@H](c1ccc(C(F)(F)F)cc1F)N(C)C(=O)c1cc2nc(N)c3c(c2[nH]1)COC3 [Example 146, (S)-5-amino-N-(1-(2-fluoro-4-(trifluoromethyl)phenyl)ethyl)-N-methyl-6,8-dihydro-1H-furo[3,4-d]pyrrolo[3,2-b]pyridine-2-carboxamide]",> 10000 nM,316 nM
"C[C@H]1OCc2c1c(N)nc1cc(C(=O)N(C)[C@@H](C)c3ccc(C(F)(F)F)cc3F)[nH]c21 [Example 147, (R)-5-amino-N—((S)-1-(2-fluoro-4-(trifluoromethyl)phenyl)ethyl)-N,6-dimethyl-6,8-dihydro-1H-furo[3,4-d]pyrrolo[3,2-b]pyridine-2-carboxamide]",5420 nM,1230 nM
"C[C@H](c1ccc(C(F)(F)F)cc1F)N(C)C(=O)c1cc2nc(N)c3c(c2[nH]1)CO[C@@H]3C [Example 148, (R)-5-amino-N—((R)-1-(2-fluoro-4-(trifluoromethyl)phenyl)ethyl)-N,6-dimethyl-6,8-dihydro-1H-furo[3,4-d]pyrrolo[3,2-b]pyridine-2-carboxamide]",2440 nM,19 nM
"C[C@@H](c1c(F)cc(C(F)(F)F)cc1F)N(C)C(=O)c1cc2nc(N)c3c(c2[nH]1)COC3 [Example 149, (S)-5-amino-N-(1-(2,6-difluoro-4-(trifluoromethyl)phenyl)ethyl)-N-methyl-6,8-dihydro-1H-furo[3,4-d]pyrrolo[3,2-b]pyridine-2-carboxamide]",> 10000 nM,2680 nM
"C[C@H](c1c(F)cc(C(F)(F)F)cc1F)N(C)C(=O)c1cc2nc(N)c3c(c2[nH]1)COC3 [Example 150, (R)-5-amino-N-(1-(2,6-difluoro-4-(trifluoromethyl)phenyl)ethyl)-N-methyl-6,8-dihydro-1H-furo[3,4-d]pyrrolo[3,2-b]pyridine-2-carboxamide]",2790 nM,32 nM
"Cc1cc([C@@H](C)N(C)C(=O)c2cc3nc(N)c4c(c3[nH]2)COC4)c(F)cc1C1CC1 [Example 151, (R)-5-amino-N-(1-(4-cyclopropyl-2-fluoro-5-methylphenyl)ethyl)-N-methyl-6,8-dihydro-1H-furo[3,4-d]pyrrolo[3,2-b]pyridine-2-carboxamide]",> 10000 nM,85 nM
"Cc1cc([C@H](C)N(C)C(=O)c2cc3nc(N)c4c(c3[nH]2)COC4)c(F)cc1C1CC1 [Example 152, (S)-5-amino-N-(1-(4-cyclopropyl-2-fluoro-5-methylphenyl)ethyl)-N-methyl-6,8-dihydro-1H-furo[3,4-d]pyrrolo[3,2-b]pyridine-2-carboxamide]",> 10000 nM,1280 nM
"C[C@H](c1ncc(C2CC2)cc1F)N(C(=O)c1cc2nc(N)c3c(c2[nH]1)COC3)C1CCC1 [Example 153, (R)-5-amino-N-cyclobutyl-N-(1-(5-cyclopropyl-3-fluoropyridin-2-yl)ethyl)-6,8-dihydro-1H-furo[3,4-d]pyrrolo[3,2-b]pyridine-2-carboxamide]",610 nM,10 nM
"C[C@@H](c1ncc(C2CC2)cc1F)N(C(=O)c1cc2nc(N)c3c(c2[nH]1)COC3)C1CCC1 [Example 154, (S)-5-amino-N-cyclobutyl-N-(1-(5-cyclopropyl-3-fluoropyridin-2-yl)ethyl)-6,8-dihydro-1H-furo[3,4-d]pyrrolo[3,2-b]pyridine-2-carboxamide]",8520 nM,1630 nM
"C[C@H](c1ncc(C(F)(F)F)cc1F)N(C(=O)c1cc2nc(N)c3c(c2[nH]1)COC3)C1CCC1 [Example 155, (R)-5-amino-N-cyclobutyl-N-(1-(3-fluoro-5-(trifluoromethyl)pyridin-2-yl)ethyl)-6,8-dihydro-1H-furo[3,4-d]pyrrolo[3,2-b]pyridine-2-carboxamide]",2250 nM,19 nM
"C[C@@H](c1ncc(C(F)(F)F)cc1F)N(C(=O)c1cc2nc(N)c3c(c2[nH]1)COC3)C1CCC1 [Example 156, (S)-5-amino-N-cyclobutyl-N-(1-(3-fluoro-5-(trifluoromethyl)pyridin-2-yl)ethyl)-6,8-dihydro-1H-furo[3,4-d]pyrrolo[3,2-b]pyridine-2-carboxamide]",> 10000 nM,523 nM
"COCCN(C(=O)c1cc2nc(N)c3c(c2[nH]1)COC3)[C@H](C)c1ncc(C(F)(F)F)cc1F [Example 157, (R)-5-amino-N-(1-(3-fluoro-5-(trifluoromethyl)pyridin-2-yl)ethyl)-N-(2-methoxyethyl)-6,8-dihydro-1H-furo[3,4-d]pyrrolo[3,2-b]pyridine-2-carboxamide]",> 10000 nM,64 nM
"COCCN(C(=O)c1cc2nc(N)c3c(c2[nH]1)COC3)[C@@H](C)c1ncc(C(F)(F)F)cc1F [Example 158, (S)-5-amino-N-(1-(3-fluoro-5-(trifluoromethyl)pyridin-2-yl)ethyl)-N-(2-methoxyethyl)-6,8-dihydro-1H-furo[3,4-d]pyrrolo[3,2-b]pyridine-2-carboxamide]",> 10000 nM,2020 nM
"C[C@H](c1ccc(C2CC2)cn1)N(C(=O)c1cc2nc(N)c3c(c2[nH]1)COC3)C1CCC1 [Example 159, (R)-5-amino-N-cyclobutyl-N-(1-(5-cyclopropylpyridin-2-yl)ethyl)-6,8-dihydro-1H-furo[3,4-d]pyrrolo[3,2-b]pyridine-2-carboxamide]",2580 nM,36 nM
"C[C@@H](c1ccc(C2CC2)cn1)N(C(=O)c1cc2nc(N)c3c(c2[nH]1)COC3)C1CCC1 [Example 160, (S)-5-amino-N-cyclobutyl-N-(1-(5-cyclopropylpyridin-2-yl)ethyl)-6,8-dihydro-1H-furo[3,4-d]pyrrolo[3,2-b]pyridine-2-carboxamide]",> 10000 nM,598 nM
"CCN(C(=O)c1cc2nc(N)c3c(c2[nH]1)COC3)[C@@H]1COC2(CC2)c2cc(C(F)(F)F)ccc21 [Example 161, (S)-5-amino-N-ethyl-N-(7′-(trifluoromethyl)spiro[cyclopropane-1,1′-isochroman]-4′-yl)-6,8-dihydro-1H-furo[3,4-d]pyrrolo[3,2-b]pyridine-2-carboxamide]",2800 nM,39 nM
"CN(C(=O)c1cc2nc(N)c3c(c2[nH]1)COC3)[C@@H]1CCOc2cc(C(F)(F)F)ccc21 [Example 162, (R)-5-amino-N-methyl-N-(7-(trifluoromethyl)chroman-4-yl)-6,8-dihydro-1H-furo[3,4-d]pyrrolo[3,2-b]pyridine-2-carboxamide]",> 10000 nM,186 nM
"CN(C(=O)c1cc2nc(N)c3c(c2[nH]1)COC3)[C@H]1COCc2cc(C(F)(F)F)cnc21 [Example 163, (R)-5-amino-N-methyl-N-(3-(trifluoromethyl)-7,8-dihydro-5H-pyrano[4,3-b]pyridin-8-yl)-6,8-dihydro-1H-furo[3,4-d]pyrrolo[3,2-b]pyridine-2-carboxamide]",> 10000 nM,> 10000 nM
"CN(C(=O)c1cc2nc(N)c3c(c2[nH]1)COC3)[C@@H]1COCc2cc(C(F)(F)F)cnc21 [Example 164, (S)-5-amino-N-methyl-N-(3-(trifluoromethyl)-7,8-dihydro-5H-pyrano[4,3-b]pyridin-8-yl)-6,8-dihydro-1H-furo[3,4-d]pyrrolo[3,2-b]pyridine-2-carboxamide]",> 10000 nM,145 nM
"C[C@H]1OCc2c1c(N)nc1cc(C(=O)N(C)[C@@H]3COC4(CC4)c4cc(C(F)(F)F)ccc43)[nH]c21 [Example 165, (R)-5-amino-N,6-dimethyl-N—((S)-7′-(trifluoromethyl)spiro[cyclopropane-1,1′-isochroman]-4′-yl)-6,8-dihydro-1H-furo[3,4-d]pyrrolo[3,2-b]pyridine-2-carboxamide]",2570 nM,17 nM
"CCN(C(=O)c1cc2nc(N)c3c(c2[nH]1)CO[C@@H]3C)[C@@H]1COC2(CC2)c2cc(C(F)(F)F)ccc21 [Example 166, (R)-5-amino-N-ethyl-6-methyl-N—((S)-7′-(trifluoromethyl)spiro[cyclopropane-1,1′-isochroman]-4′-yl)-6,8-dihydro-1H-furo[3,4-d]pyrrolo[3,2-b]pyridine-2-carboxamide]",2150 nM,19 nM
"CN(C(=O)c1cc2nc(N)c3c(c2[nH]1)COC3)[C@H]1COC2(CC2)c2cc(C(F)(F)F)cc(F)c21 [Example 167, (R)-5-amino-N-(5′-fluoro-7′-(trifluoromethyl)spiro[cyclopropane-1,1′-isochroman]-4′-yl)-N-methyl-6,8-dihydro-1H-furo[3,4-d]pyrrolo[3,2-b]pyridine-2-carboxamide]",3320 nM,697 nM
"CN(C(=O)c1cc2nc(N)c3c(c2[nH]1)COC3)[C@@H]1COC2(CC2)c2cc(C(F)(F)F)cc(F)c21 [Example 168, (S)-5-amino-N-(5′-fluoro-7′-(trifluoromethyl)spiro[cyclopropane-1,1′-isochroman]-4′-yl)-N-methyl-6,8-dihydro-1H-furo[3,4-d]pyrrolo[3,2-b]pyridine-2-carboxamide]",2110 nM,8.4 nM
"C[C@H]1OCc2c1c(N)nc1cc(C(=O)N(C)[C@H]3COC4(CC4)c4cc(C(F)(F)F)cc(F)c43)[nH]c21 [Example 169, (R)-5-amino-N—((R)-5′-fluoro-7′-(trifluoromethyl)spiro[cyclopropane-1,1′-isochroman]-4′-yl)-N,6-dimethyl-6,8-dihydro-1H-furo[3,4-d]pyrrolo[3,2-b]pyridine-2-carboxamide]",2110 nM,565 nM
